Measurements as given in patent publication EP0364819A2, “LHRH analogs” (The Administrators of The Tulane Educational Fund, priority 1988, dated 1990).

Key:
[1] = system: membrane receptors of human prostate cancer; assay: Receptor binding to human prostate cancer membranes with 125I-labeled [D-Trp6]LHRH; settings: first receptor class (high affinity binding sites)
Procedure: (§1) (c)Affinity for peptides to human prostate and breast cancer cell membranes.
(§2) This is determined by using labelled LHRH and [D-Trp⁶]LHRH. The assay is carried out similarly to that described by T. Kadar et al., Proc. Natl. Acad. Sci. USA, 85, 890-894 (1988).

[2] = system: membrane receptors of Dunning tumor; assay: Receptor binding to Dunning tumor membranes with 125I-labeled [D-Trp6]LHRH; settings: first receptor class (high affinity binding sites); rat Dunning tumor
Procedure: as §2

[3] = biological target: T1, membrane receptors of human breast cancer cells (Homo sapiens, UniProt P30968); assay: Receptor binding to human breast cancer cell membranes with 125I-labeled [D-Trp6]LHRH; settings: Table 2, antagonistic analogues, high affinity binding sites, ¹²⁵l-labeled [D-Trp⁶]LHRH
T1 construct: human prostate and breast cancer cell membranes; endogenous in cells
T1 sequence (P30968 1-328): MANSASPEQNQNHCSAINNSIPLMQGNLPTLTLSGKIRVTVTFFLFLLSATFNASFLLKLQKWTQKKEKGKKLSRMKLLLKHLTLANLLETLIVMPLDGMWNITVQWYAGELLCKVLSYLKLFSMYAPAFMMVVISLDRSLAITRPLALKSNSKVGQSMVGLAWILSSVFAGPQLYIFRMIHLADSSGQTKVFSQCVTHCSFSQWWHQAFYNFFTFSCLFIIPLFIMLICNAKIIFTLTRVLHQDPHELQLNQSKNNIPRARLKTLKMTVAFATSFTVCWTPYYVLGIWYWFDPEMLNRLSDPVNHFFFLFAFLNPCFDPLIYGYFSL
Procedure: as §1, §2
(§3) Table 2 presents the antiovulatory activity of the claimed compounds having LHRH-inhibiting properties. The inhibitory action was determined in vivo, in 4-day cycling rats as described [A. Corbin and C. W. Beattie, Endocr. Res. Commun., 2, 1-23 (1975)]. Affinities of the claimed compounds to membrane receptors of rat pituitary and human breast cancer cells are also given in Tables 1 and 2 as determined by using [[…],D-Trp⁶]LHRH.

[4] = biological target: T2, membrane receptors of rat pituitary (Rattus norvegicus, UniProt P30969); assay: Receptor binding to rat pituitary membranes with 125I-labeled [D-Trp6]LHRH; settings: Table 2, antagonistic analogues; high affinity binding sites; pituitary of male rats; ¹²⁵l-labeled [D-Trp⁶]LHRH
T2 construct: membrane receptors of rat pituitary; from tissue; host or cells: rat pituitary membranes
T2 sequence (P30969 1-327): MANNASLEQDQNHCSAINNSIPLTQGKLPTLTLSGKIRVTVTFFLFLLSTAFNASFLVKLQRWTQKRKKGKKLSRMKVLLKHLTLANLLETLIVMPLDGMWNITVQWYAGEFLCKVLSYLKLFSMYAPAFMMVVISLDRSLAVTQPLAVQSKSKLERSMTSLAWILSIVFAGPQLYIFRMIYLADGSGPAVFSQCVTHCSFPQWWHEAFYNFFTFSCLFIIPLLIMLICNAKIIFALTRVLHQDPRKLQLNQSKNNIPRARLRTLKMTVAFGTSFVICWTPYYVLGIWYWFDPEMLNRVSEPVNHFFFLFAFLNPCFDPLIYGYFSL
Procedure: as §2, §3

[5] = system: 4-day cycling rats; assay: In vivo antiovulatory activity in 4-day cycling rats; settings: 4-day cyclic rats
Procedure: This activity of the peptides is determined in 4-day-cycling rats as described [A. Corbin and C. W.Beattie, Endocr. Res. Commun. 2, 1-23(1975)].
as §3

[6] = prior art analogues with Chlorambucil as cytotoxic moiety; cited from earlier work

Binding affinity, Ka1, for membrane receptors of cancer cells [3] [nM-¹] | Binding affinity, Ka1, for membrane receptors of pituitary [4] [nM-¹] | Compound | activities (LHRH agonist or antagonist) [6] | further results
1.337 | 2.901 | Ac-D-Nal(2)-D-Phe(4Cl)-D-Trp-Ser-Arg-D-Lys[(Cu⁺⁺)(POLP)₂(DL-A₂pr)]-Leu-Arg-Pro-D-Ala-NH₂ [Example XXII] |  | Hormonal activity* %Blockade of ovulation ([5]; Dose 10 µg/rat): 60%
4.951 | 9.183 | Ac-D-Nal(2)-D-Phe(4Cl)-D-Trp-Ser-Arg-D-Lys[(Cu⁺⁺)(SAL)₂(DL-A₂pr)]-Leu-Arg-Pro-D-Ala-NH₂ [XII] |  | Hormonal activity* %Blockade of ovulation ([5]; Dose 3 µg/rat): 20%
4.418 | 8.676 | Ac-D-Nal(2)-D-Phe(4Cl)-D-Trp-Ser-Arg-D-Lys[(Ni⁺⁺)(SAL)₂(DL-A₂pr)]-Leu-Arg-Pro-D-Ala-NH₂ [Example XV] |  | Hormonal activity* %Blockade of ovulation ([5]; Dose 3 µg/rat): 20%

Continued, compound first:

Compound | Binding affinity, Ka1, for membrane receptors of cancer cells [3] [nM-¹] | Binding affinity, Ka1, for membrane receptors of pituitary [4] [nM-¹] | activities (LHRH agonist or antagonist) [6] | further results
CC(C)C[C@H](NC(=O)[C@@H](Cc1c[nH]c2ccccc12)NC(=O)[C@H](Cc1ccc(O)cc1)NC(=O)[C@H](CO)NC(=O)[C@H](Cc1c[nH]c2ccccc12)NC(=O)[C@H](Cc1c[nH]cn1)NC(=O)[C@@H]1CCC(=O)N1)C(=O)N[C@@H](CCCNC(=N)N)C(=O)N1CCC[C@H]1C(=O)NCC(N)=O [[D-Trp⁶]-LHRH, reference compound] |  |  |  | Human prostate cancer* Ka1 [1]: 0.04 nM⁻¹; Dunning tumor* Ka1 [2]: 1.87 nM⁻¹
Ac-D-Nal(2)-D-Phe(4Cl)-D-Pal(3)-Ser-Arg-D-Mel-Leu-Arg-Pro-D-Ala-NH₂ [Example II] | 3.967 | 7.190 |  | Human prostate cancer* Ka1 [1]: 0.7 nM⁻¹; Dunning tumor* Ka1 [2]: 1.68 nM⁻¹
[Chlorambucil-D-Leu²,D-Leu³,D-Ala⁶]LHRH (2-10) |  |  | moderate activities | 
[Chlorambucil-D-Phe¹,D-Phe²,D-Trp³ʼ⁶]LHRH |  |  | practically inactive | 
[D-Lys(Chlorambucil)⁶] LHRH |  |  | moderate activities | 
